From patent US20230257396A1, “MACROCYCLES AND THEIR USE” (BLOSSOMHILL THERAPEUTICS, INC., priority 2020, published 2023)

Tests used:
Assay in all cases: KINOMEscan kinase binding assay (Eurofins/DiscoveRx), % Ctrl
Settings in all cases: 1 μM
[1] = biological target: T1, kinases (Homo sapiens, UniProt P00519, Q252H)
T1 construct: purchased Eurofins/DiscoveRx; host or cells: E. coli BL21-derived host (T7 phage display) for most kinases; HEK-293 for the rest
Description: (§1) Kinase binding assays were performed at Eurofins/DiscoveRx using the general KINOMEscan Protocol (Fabian, M. A. et al., “A small molecule-kinase interaction map for clinical kinase inhibitors,” Nat. Biotechnol. 2005, 23(3):329-36). For most assays, kinase-tagged T7 phage strains were prepared in an E. coli host derived from the BL21 strain. E. coli were grown to log-phase and infected with T7 phage and incubated with shaking at 32° C. until lysis. The lysates were centrifuged and filtered to remove cell debris. The remaining kinases were produced in HEK-293 cells and subsequently tagged with DNA for qPCR detection. Streptavidin-coated magnetic beads were treated with biotinylated small molecule ligands for 30 minutes at room temperature to generate affinity resins for kinase assays. The liganded beads were blocked with excess biotin and washed with blocking buffer (SeaBlock (Pierce), 1% BSA, 0.05% Tween 20, 1 mM DTT) to remove unbound ligand and to reduce nonspecific binding. Binding reactions were assembled by combining kinases, liganded affinity beads, and test compounds in 1×binding buffer (20% SeaBlock, 0.17×PBS, 0.05% Tween 20, 6 mM DTT). All reactions were performed in polystyrene 96-well plates in a final volume of 0.135 mL. The assay plates were incubated at room temperature with shaking for 1 hour and the affinity beads were washed with washbuffer (1×PBS, 0.05% Tween 20). The beads were then re-suspended in elution buffer (1× PBS, 0.05% Tween 20, 0.5 μM non-biotinylated affinity ligand) and incubated at room temperature with shaking for 30 minutes. The kinase concentration in the eluates was measured by qPCR. Results for compounds tested in this assay at a given concentration are reported as “% Ctrl”, where lower numbers indicate stronger binding in the matrix.
(§2) (test compound signal-positive control signal)/(negative control signal-positive control signal) X100

[2] = system: kinases
Description: as §1, §2

[3] = biological target: T2, kinases (Homo sapiens, UniProt P00533, DEL746-750)
T2 construct: purchased Eurofins/DiscoveRx; host or cells: E. coli BL21-derived host (T7 phage display) for most kinases; HEK-293 for the rest
Description: as §1, §2

[4] = biological target: T3, kinases (Homo sapiens, UniProt P10721, V559D/V654A)
T3 construct: purchased Eurofins/DiscoveRx; host or cells: E. coli BL21-derived host (T7 phage display) for most kinases; HEK-293 for the rest
Description: as §1, §2

[5] = biological target: T4, kinases (Homo sapiens, UniProt P10721, T670I/V559D)
T4 construct: purchased Eurofins/DiscoveRx; host or cells: E. coli BL21-derived host (T7 phage display) for most kinases; HEK-293 for the rest
Description: as §1, §2

[6] = biological target: T5, kinases (Homo sapiens, UniProt P10721, A829P)
T5 construct: purchased Eurofins/DiscoveRx; host or cells: E. coli BL21-derived host (T7 phage display) for most kinases; HEK-293 for the rest
Description: as §1, §2

[7] = biological target: T6, kinases (Homo sapiens, UniProt P07949, V804M)
T6 construct: purchased Eurofins/DiscoveRx; host or cells: E. coli BL21-derived host (T7 phage display) for most kinases; HEK-293 for the rest
Description: as §1, §2

[8] = biological target: T7, kinases (Homo sapiens, UniProt P00533)
T7 construct: purchased Eurofins/DiscoveRx; host or cells: E. coli BL21-derived host (T7 phage display) for most kinases; HEK-293 for the rest
Description: as §1, §2

[9] = biological target: T8, kinases (Homo sapiens, UniProt P36888, D835V)
T8 construct: purchased Eurofins/DiscoveRx; host or cells: E. coli BL21-derived host (T7 phage display) for most kinases; HEK-293 for the rest
T8 sequence (P36888 27-993 D835V): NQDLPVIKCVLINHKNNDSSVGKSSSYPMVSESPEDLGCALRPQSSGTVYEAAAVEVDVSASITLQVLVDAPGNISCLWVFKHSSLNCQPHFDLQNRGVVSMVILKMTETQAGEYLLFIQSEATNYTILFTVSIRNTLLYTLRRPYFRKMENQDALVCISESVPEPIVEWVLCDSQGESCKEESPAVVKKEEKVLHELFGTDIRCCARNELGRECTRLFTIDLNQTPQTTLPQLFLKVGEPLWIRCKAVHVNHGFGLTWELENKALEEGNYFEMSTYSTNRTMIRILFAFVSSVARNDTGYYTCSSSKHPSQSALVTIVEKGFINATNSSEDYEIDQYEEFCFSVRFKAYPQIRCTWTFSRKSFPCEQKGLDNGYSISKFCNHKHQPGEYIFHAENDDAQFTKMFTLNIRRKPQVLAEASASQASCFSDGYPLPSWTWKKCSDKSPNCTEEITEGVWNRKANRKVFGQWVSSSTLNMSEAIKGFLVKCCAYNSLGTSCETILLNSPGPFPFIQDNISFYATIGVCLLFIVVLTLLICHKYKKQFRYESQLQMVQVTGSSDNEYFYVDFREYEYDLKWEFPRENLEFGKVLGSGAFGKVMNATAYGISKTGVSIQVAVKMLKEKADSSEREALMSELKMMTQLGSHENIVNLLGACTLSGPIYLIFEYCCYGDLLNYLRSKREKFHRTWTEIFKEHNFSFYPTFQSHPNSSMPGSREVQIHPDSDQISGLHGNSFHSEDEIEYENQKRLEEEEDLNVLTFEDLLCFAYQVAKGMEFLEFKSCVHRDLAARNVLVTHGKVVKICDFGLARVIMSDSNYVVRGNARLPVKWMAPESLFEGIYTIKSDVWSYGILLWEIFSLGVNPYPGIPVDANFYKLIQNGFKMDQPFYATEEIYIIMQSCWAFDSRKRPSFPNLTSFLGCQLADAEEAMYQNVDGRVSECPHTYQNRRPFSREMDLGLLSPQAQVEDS
Description: as §1, §2

[10] = biological target: T9, kinases (Homo sapiens, UniProt P00519, M351T)
T9 construct: purchased Eurofins/DiscoveRx; host or cells: E. coli BL21-derived host (T7 phage display) for most kinases; HEK-293 for the rest
Description: as §1, §2

T4 sequence (P10721 26-976 V559D/T670I): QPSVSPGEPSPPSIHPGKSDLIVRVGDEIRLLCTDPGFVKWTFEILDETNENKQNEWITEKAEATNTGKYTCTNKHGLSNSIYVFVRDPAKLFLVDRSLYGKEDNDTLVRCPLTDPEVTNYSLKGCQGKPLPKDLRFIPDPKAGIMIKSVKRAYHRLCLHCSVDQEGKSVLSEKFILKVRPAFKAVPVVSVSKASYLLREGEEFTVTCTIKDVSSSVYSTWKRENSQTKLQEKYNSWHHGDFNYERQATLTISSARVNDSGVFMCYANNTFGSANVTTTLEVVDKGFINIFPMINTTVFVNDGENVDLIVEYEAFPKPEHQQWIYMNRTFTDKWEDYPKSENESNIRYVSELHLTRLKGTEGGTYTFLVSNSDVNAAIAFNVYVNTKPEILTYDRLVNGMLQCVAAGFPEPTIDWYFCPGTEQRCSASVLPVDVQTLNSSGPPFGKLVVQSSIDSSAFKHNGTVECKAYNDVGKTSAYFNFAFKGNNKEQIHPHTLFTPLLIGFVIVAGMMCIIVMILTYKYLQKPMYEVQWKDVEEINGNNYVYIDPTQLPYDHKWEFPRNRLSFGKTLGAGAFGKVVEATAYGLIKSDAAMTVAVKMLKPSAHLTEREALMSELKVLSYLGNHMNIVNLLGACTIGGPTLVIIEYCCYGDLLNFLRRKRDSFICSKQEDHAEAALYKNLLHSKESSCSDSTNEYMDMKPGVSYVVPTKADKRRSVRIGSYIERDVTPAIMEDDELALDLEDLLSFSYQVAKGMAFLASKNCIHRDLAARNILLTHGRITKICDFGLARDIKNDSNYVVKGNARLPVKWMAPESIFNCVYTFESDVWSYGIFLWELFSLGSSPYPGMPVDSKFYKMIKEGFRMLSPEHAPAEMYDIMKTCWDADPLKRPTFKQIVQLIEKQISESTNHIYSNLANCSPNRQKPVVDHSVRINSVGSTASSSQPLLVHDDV
T5 sequence (P10721 26-976 A829P): as the sequence (P10721 26-976 V559D/T670I) above, with D534V, I645T, A804P counted along it
T6 sequence (P07949 29-1114 V804M): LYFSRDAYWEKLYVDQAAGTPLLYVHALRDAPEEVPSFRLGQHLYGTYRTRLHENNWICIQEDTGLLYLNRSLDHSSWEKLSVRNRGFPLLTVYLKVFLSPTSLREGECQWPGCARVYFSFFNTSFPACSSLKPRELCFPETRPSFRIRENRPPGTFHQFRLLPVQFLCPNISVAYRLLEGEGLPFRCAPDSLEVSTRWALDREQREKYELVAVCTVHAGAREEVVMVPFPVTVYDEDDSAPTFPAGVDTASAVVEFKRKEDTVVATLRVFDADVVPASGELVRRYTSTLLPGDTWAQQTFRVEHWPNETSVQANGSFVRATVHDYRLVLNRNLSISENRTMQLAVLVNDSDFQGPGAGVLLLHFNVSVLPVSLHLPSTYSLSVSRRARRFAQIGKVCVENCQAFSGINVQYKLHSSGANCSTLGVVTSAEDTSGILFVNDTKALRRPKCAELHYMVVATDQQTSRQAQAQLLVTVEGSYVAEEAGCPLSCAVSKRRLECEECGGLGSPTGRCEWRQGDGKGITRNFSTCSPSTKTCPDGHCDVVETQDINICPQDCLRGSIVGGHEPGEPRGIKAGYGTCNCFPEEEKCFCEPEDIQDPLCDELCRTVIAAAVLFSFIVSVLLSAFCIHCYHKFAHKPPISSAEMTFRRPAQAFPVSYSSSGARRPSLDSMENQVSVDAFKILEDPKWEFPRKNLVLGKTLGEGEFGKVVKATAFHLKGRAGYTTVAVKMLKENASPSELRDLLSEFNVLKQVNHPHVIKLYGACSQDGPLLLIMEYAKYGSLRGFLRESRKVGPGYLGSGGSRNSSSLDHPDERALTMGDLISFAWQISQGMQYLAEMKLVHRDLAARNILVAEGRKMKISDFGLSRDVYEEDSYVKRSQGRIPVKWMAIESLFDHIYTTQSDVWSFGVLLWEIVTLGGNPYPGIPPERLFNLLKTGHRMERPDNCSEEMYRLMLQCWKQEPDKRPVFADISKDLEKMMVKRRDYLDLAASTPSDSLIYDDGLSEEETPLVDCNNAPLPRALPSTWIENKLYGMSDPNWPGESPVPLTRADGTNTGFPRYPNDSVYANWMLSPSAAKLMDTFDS
T3 sequence (P10721 26-976 V559D/V654A): as the sequence (P10721 26-976 V559D/T670I) above, with V629A, I645T counted along it

SMILES | % Ctrl, ABL1(Q252H)-nonphosphorylated ([1]; ABL1(Q252H)-nonphosphorylated) | % Ctrl, ABL1(Q252H)-phosphorylated ([1]; ABL1(Q252H)-phosphorylated) | % Ctrl, EGFR(L747-E749del, A750P) ([2]; EGFR(L747-E749del, A750P)) | % Ctrl, EGFR(L747-S752del, P753S) ([2]; EGFR(L747-S752del, P753S)) | % Ctrl, EGFR(L747-T751del, Sins) ([2]; EGFR(L747-T751del, Sins)) | % Ctrl, FLT3(ITD) ([2]; FLT3(ITD)) | % Ctrl, FLT3(ITD, D835V) ([2]; FLT3(ITD, D835V)) | % Ctrl, FLT3(ITD, F691L) ([2]; FLT3(ITD, F691L)) | % Ctrl, EGFR(E746-A750del) ([3]; EGFR(E746-A750del)) | % Ctrl, KIT(V559D, V654A) ([4]; KIT(V559D, V654A)) | % Ctrl, KIT(V559D, T670I) ([5]; KIT(V559D, T670I)) | % Ctrl, KIT(A829P) ([6]; KIT(A829P)) | % Ctrl, RET(V804M) ([7]; RET(V804M)) | % Ctrl, EGFR ([8]; EGFR) | % Ctrl, FLT3(D835V) ([9]; FLT3(D835V)) | % Ctrl, ABL1(M351T)-phosphorylated ([10]; ABL1(M351T)-phosphorylated) | other results
Cc1cc2c([nH]1)/C=C1\C(=O)Nc3ccc(cc31)-c1ccnn1CCOCCNC2=O [Ex.39, [19a(20)Z]-2-methyl-6,7,9,10-tetrahydro-1H-15,17-(ethanediylidene)pyrazolo[1,5-d]dipyrrolo[3,4-h:2′,3′-k][1,4,14]oxadiazacyclohexadecine-4,19(5H,18H)-dione] | 84 % Ctrl | 93 % Ctrl | 68 % Ctrl | 66 % Ctrl | 60 % Ctrl | 89 % Ctrl | 17 % Ctrl | 27 % Ctrl | 69 % Ctrl | 91 % Ctrl | 85 % Ctrl | 99 % Ctrl | 94 % Ctrl | 77 % Ctrl | 35 % Ctrl | 58 % Ctrl | 
Cc1cc2c([nH]1)/C=C1\C(=O)Nc3cnc(cc31)-c1cn[nH]c1CNCCN(C)C2=O [Ex. 55, [3a(4)Z]-6,9-dimethyl-9,10,11,12,13,14-hexahydro-17,1-(azenometheno)pyrazolo[4,3-m]dipyrrolo[3,2-f:3′,4′-i][1,4]diazacyclopentadecine-3,8(2,5H)-dione] |  |  |  |  |  |  |  |  |  |  |  |  |  |  |  |  | % Ctrl, ABL1(Q252H)-nonphosphorylated ([1]; target ABL1(Q252H)-nonphosphorylated): 2.8 % Ctrl; % Ctrl, ABL1(Q252H)-phosphorylated ([1]; target ABL1(Q252H)-phosphorylated): 1.7 % Ctrl; % Ctrl, EGFR(L747-E749del, A750P) ([2]; target EGFR(L747-E749del, A750P)): 82 % Ctrl; % Ctrl, EGFR(L747-S752del, P753S) ([2]; target EGFR(L747-S752del, P753S)): 56 % Ctrl; % Ctrl, EGFR(L747-T751del, Sins) ([2]; target EGFR(L747-T751del, Sins)): 66 % Ctrl; % Ctrl, FLT3(ITD) ([2]; target FLT3(ITD)): 0.3 % Ctrl; % Ctrl, FLT3(ITD, D835V) ([2]; target FLT3(ITD, D835V)): 1.2 % Ctrl; % Ctrl, FLT3(ITD, F691L) ([2]; target FLT3(ITD, F691L)): 0.1 % Ctrl; % Ctrl, EGFR(E746-A750del) ([3]; target EGFR(E746-A750del)): 74 % Ctrl; % Ctrl, KIT(V559D, V654A) ([4]; target KIT(V559D, V654A)): 22 % Ctrl; % Ctrl, KIT(V559D, T670I) ([5]; target KIT(V559D, T670I)): 50 % Ctrl; % Ctrl, KIT(A829P) ([6]; target KIT(A829P)): 39 % Ctrl; % Ctrl, RET(V804M) ([7]; target RET(V804M)): 0.3 % Ctrl; % Ctrl, EGFR ([8]; target EGFR): 59 % Ctrl; % Ctrl, FLT3(D835V) ([9]; target FLT3(D835V)): 1.1 % Ctrl; % Ctrl, ABL1(M351T)-phosphorylated ([10]; target ABL1(M351T)-phosphorylated): 3.7 % Ctrl
Cc1cc2c([nH]1)/C=C1\C(=O)Nc3cc(Cl)c(cc31)OCCO[C@@H](C(=O)N[C@@H]1CCNC1)CN(C)C2=O [Ex. 136, [7R,16a(17)Z]-19-chloro-2,5-dimethyl-4,16-dioxo-N-[(3R)-pyrrolidin-3-yl]-4,5,6,7,9,10,15,16-octahydro-1H-12,14-(ethanediylidene)dipyrrolo[3,2-i:3′,4′-l][1,4,7]dioxazacyclopentadecine-7-carboxamide] | 24 % Ctrl | 14 % Ctrl | 80 % Ctrl | 82 % Ctrl | 94 % Ctrl | 23 % Ctrl | 2.8 % Ctrl | 5.7 % Ctrl | 76 % Ctrl | 54 % Ctrl | 3.2 % Ctrl | 64 % Ctrl | 64 % Ctrl | 98 % Ctrl | 2 % Ctrl | 17 % Ctrl | 
